target: Nav1.8 ion channel stably expressed on HEK293 cells (Homo sapiens (Human), UniProt Q9Y5Y9); experiment: Inhibitory activity against Nav1.8, manual patch clamp; format: cell-based; conditions: resting protocol (-80 mV to 10 mV), 1 μM TTX, read-out: IC50 for the inhibition of Nav1.8 channel activity
Description: The objective of the experiment was to investigate the effects of the compounds on the Nav1.8 ion channel in ex vivo experiments. The Nav1.8 ion channel is stably expressed on HEK293 cells. After the Nav1.8 current stabilized, the effects of the compounds on the Nav1.8 ion channel were obtained by comparing the magnitudes of the Nav1.8 currents before and after the compounds were applied.
• 1) A patch clamp amplifier: patch clamp PC-505B (WARNER instruments)/MultiClamp 700A (Axon instrument) • 2) A digital-to-analog converter: Digidata 1440A (Axon CNS)/Digidata 1550A (Axon instruments) • 3) A micromanipulator: MP-225 (SUTTER instrument) • 4) An inverted microscope: TL4 (Olympus) • 5) Glass micropipette puller: PC-10 (NARISHIGE) • 6) Microelectrode glass capillaries: B12024F (Wuhan VitalSense Scientific Instruments Co., Ltd.) • 7) Dimethyl sulfoxide (DMSO) D2650 (Sigma-Aldrich) • 8) TTX AF3014 (Affix Scientific)
The compounds for preparing the intracellular and extracellular fluids were purchased from Sigma (St. Louis, MO) except for the NaOH and KOH for the acid-base titrations. The extracellular fluid (mM) was: NaCl, 137; KCl, 4; CaCl2, 1.8; MgCl2, 1; HEPES, 10; glucose, 10; pH 7.4 (NaOH titration). The intracellular fluid (mM) was: aspartic acid, 140; MgCl2, 2; EGTA, 11; HEPES, 10; pH 7.2 (CsOH titration). All test and control compound solutions contained 1 μM TTX.
The test compounds were stored at a concentration of 9 mM in dimethyl sulfoxide (DMSO). On the testing day, the compounds were further dissolved in the extracellular fluid to prepare the required concentrations.
1) After the compounds were prepared into solutions with specified concentrations, the compound solutions were sequentially added to channels in ascending order according to their concentrations, and each channel was labeled.
2) A cell was transferred to the perfusion chamber. Positive pressure was applied inside the electrode, and the electrode tip was brought into contact with the cell. The three-way valve of the suction device was switched to the state where all three ways were open, and negative pressure was then applied to the electrode, allowing a high-resistance seal to form between the electrode and the cell. The application of negative pressure was continued to rupture the cell membrane, leading to the formation of a current pathway.
3) After the cell membrane rupture current stabilized, perfusion was performed with different concentrations in sequence. If the current remained stable for at least one minute, perfusion was performed with the next concentration.
4) The perfusion chamber was cleaned. The perfusion chamber was rinsed with the compound solutions in descending order according to their concentrations, with each concentration applied for 20 s. Finally, the perfusion chamber was rinsed with the extracellular fluid for 1 min.
The cell was clamped at −80 mV and then depolarized to 10 mV using a square wave lasting for 10 ms to obtain a Nav1.8 current. This procedure was repeated once every 5 seconds. The maximum current induced by the square wave was detected. After the current stabilized, perfusion was performed with the test compounds. After the reaction stabilized, the strength of the blocking was calculated.
The data were stored on a computer system and analyzed. Data acquisition and analysis were performed using pCLAMP 10 (Molecular Devices, Union City, CA), and the results were reviewed by a manager. “Current stabilized” means that the changes in current over time were within a limited range. The magnitude of the current after stabilization was used to calculate the effect of the compound at this […].
The inhibitory activity of the compounds of the present disclosure against Nav1.8 was determined through the above assay.

Question: For COc1c([C@H]2[C@H](C(=O)Nc3ccnc(C(=O)NN(C)C)c3)O[C@@](C)(C(F)(F)F)[C@H]2C)ccc(F)c1F [Example 24, (2R,3S,4S,5R)-3-(3,4-Difluoro-2-methoxyphenyl)-N-(2-(2,2-dimethylhydrazine-1-carbonyl)pyridin-4-yl)-4,5-dimethyl-5-(trifluoromethyl)tetrahydrofuran-2-carboxamide], which IC50 is on record?
Answer: 2.12 nM

Question: With CONC(=O)c1cc(NC(=O)[C@@H]2O[C@@](C)(C(F)(F)F)[C@@H](C)[C@H]2c2ccc(F)c(F)c2OC)ccn1 [Example 5, 4-((2R,3S,4S,5R)-3-(3,4-Difluoro-2-methoxyphenyl)-4,5-dimethyl-5-(trifluoromethyl)tetrahydrofuran-2-carboxamido)-N-methoxypicolinamide] as the compound, how does the IC50 read?
Answer: 0.71 nM

Question: With COc1c([C@H]2[C@H](C(=O)Nc3ccnc(C(C)(C)O)c3)O[C@@](C)(C(F)(F)F)[C@H]2C)ccc(F)c1F [Example 3, (2R,3S,4S,5R)-3-(3,4-Difluoro-2-methoxyphenyl)-N-(2-(2-hydroxypropan-2-yl)pyridin-4-yl)-4,5-dimethyl-5-(trifluoromethyl)tetrahydrofuran-2-carboxamide] as the compound, how does the IC50 read?
Answer: 2.65 nM

Question: Which IC50 does the source give for C/N=C(\N)c1cc(NC(=O)[C@@H]2O[C@@](C)(C(F)(F)F)[C@@H](C)[C@H]2c2ccc(F)c(F)c2OC)ccn1 [Example 21, (2R,3S,4S,5R)-3-(3,4-Difluoro-2-methoxyphenyl)-4,5-dimethyl-N-(2-((Z)—N′-methylcarbamimidoyl)pyridin-4-yl)-5-(trifluoromethyl)tetrahydrofuran-2-carboxamide] here?
Answer: 1.35 nM

Question: Which IC50 does the source give for COc1c([C@H]2[C@H](C(=O)Nc3ccc(F)c(C(=N)N)c3)O[C@@](C)(C(F)(F)F)[C@H]2C)ccc(F)c1F [Example 27, (2R,3S,4S,5R)—N-(3-Carbamimidoyl-4-fluorophenyl)-3-(3,4-difluoro-2-methoxyphenyl)-4,5-dimethyl-5-(trifluoromethyl)tetrahydrofuran-2-carboxamide] here?
Answer: < 0.16 nM

Question: With COc1c([C@H]2[C@H](C(=O)Nc3ccnc(C(=O)NNC4CC4)c3)O[C@@](C)(C(F)(F)F)[C@H]2C)ccc(F)c1F [Example 23, (2R,3S,4S,5R)—N-(2-(2-Cyclopropylhydrazine-1-carbonyl)pyridin-4-yl)-3-(3,4-difluoro-2-methoxyphenyl)-4,5-dimethyl-5-(trifluoromethyl)tetrahydrofuran-2-carboxamide] as the compound, how does the IC50 read?
Answer: 2.85 nM

Question: How did the IC50 turn out when COc1c([C@H]2[C@H](C(=O)Nc3ccnc(NC(C)=O)c3)O[C@@](C)(C(F)(F)F)[C@H]2C)ccc(F)c1F [Example 11, (2R,3S,4S,5R)—N-(2-Acetamidopyridin-4-yl)-3-(3,4-difluoro-2-methoxyphenyl)-4,5-dimethyl-5-(trifluoromethyl)tetrahydrofuran-2-carboxamide] was run?
Answer: 1.54 nM

Question: With CO/N=C(\N)c1cc(NC(=O)[C@@H]2O[C@@](C)(C(F)(F)F)[C@@H](C)[C@H]2c2ccc(F)c(F)c2OC)cc[n+]1[O-] [Example 44, 4-((2R,3S,4S,5R)-3-(3,4-Difluoro-2-methoxyphenyl)-4,5-dimethyl-5-(trifluoromethyl)tetrahydrofuran-2-carboxamido)-2-((Z)—N′-methoxycarbamimidoyl)pyridine 1-oxide] as the compound, how does the IC50 read?
Answer: 0.53 nM

Question: With COc1c([C@H]2[C@H](C(=O)Nc3ccnc(NC(N)=O)c3)O[C@@](C)(C(F)(F)F)[C@H]2C)ccc(F)c1F [Example 9, (2R,3S,4S,5R)-3-(3,4-Difluoro-2-methoxyphenyl)-4,5-dimethyl-5-(trifluoromethyl)-N-(2-ureidopyridin-4-yl)tetrahydrofuran-2-carboxamide] as the compound, how does the IC50 read?
Answer: 3.24 nM

Question: Which IC50 does the source give for COc1c([C@H]2[C@H](C(=O)Nc3ccnc(C(=O)N4CCCN4)c3)O[C@@](C)(C(F)(F)F)[C@H]2C)ccc(F)c1F [Example 14, (2R,3S,4S,5R)-3-(3,4-Difluoro-2-methoxyphenyl)-4,5-dimethyl-N-(2-(pyrazolidine-1-carbonyl)pyridin-4-yl)-5-(trifluoromethyl)tetrahydrofuran-2-carboxamide] here?
Answer: 2.12 nM

Question: How did the IC50 turn out when COc1c([C@H]2[C@H](C(=O)Nc3ccnc(C(=O)N4CCCO4)c3)O[C@@](C)(C(F)(F)F)[C@H]2C)ccc(F)c1F [Example 15, (2R,3S,4S,5R)-3-(3,4-Difluoro-2-methoxyphenyl)-N-(2-(isoxazolidine-2-carbonyl)pyridin-4-yl)-4,5-dimethyl-5-(trifluoromethyl)tetrahydrofuran-2-carboxamide] was run?
Answer: 1.78 nM

Question: COc1c([C@H]2[C@H](C(=O)Nc3ccnc(OCC(O)C4(O)CC4)c3)O[C@@](C)(C(F)(F)F)[C@H]2C)ccc(F)c1F (stereo partly drawn) [Example 39, (2R,3S,4S,5R)-3-(3,4-Difluoro-2-methoxyphenyl)-N-(2-(2-hydroxy-2-(1-hydroxycyclopropyl)ethoxy)pyridin-4-yl)-4,5-dimethyl-5-(trifluoromethyl)tetrahydrofuran-2-carboxamide] was tested. Which IC50 did it give?
Answer: 2.68 nM

Question: For CNNC(=O)c1cc(NC(=O)[C@@H]2O[C@@](C)(C(F)(F)F)[C@@H](C)[C@H]2c2ccc(F)c(F)c2OC)ccn1 [Example 19, (2R,3S,4S,5R)-3-(3,4-Difluoro-2-methoxyphenyl)-4,5-dimethyl-N-(2-(2-methylhydrazine-1-carbonyl)pyridin-4-yl)-5-(trifluoromethyl)tetrahydrofuran-2-carboxamide], which IC50 is on record?
Answer: 1.01 nM

Question: Which IC50 does the source give for [2H]C([2H])([2H])O/N=C(\N)c1cc(NC(=O)[C@@H]2O[C@@](C)(C(F)(F)F)[C@@H](C)[C@H]2c2ccc(F)c(F)c2OC)ccn1 [Example 37, (2R,3S,4S,5R)-3-(3,4-Difluoro-2-methoxyphenyl)-N-(2-((Z)—(N′-methoxy-d3)carbamimidoyl)pyridin-4-yl)-4,5-dimethyl-5-(trifluoromethyl)tetrahydrofuran-2-carboxamide] here?
Answer: 1.86 nM

Question: COc1c([C@H]2[C@H](C(=O)Nc3ccnc(OC[C@H](O)CO)c3)O[C@@](C)(C(F)(F)F)[C@H]2C)ccc(F)c1F [Example 2, (2R,3S,4S,5R)-3-(3,4-Difluoro-2-methoxyphenyl)-N-(2-((R)-2,3-dihydroxypropoxy)pyridin-4-yl)-4,5-dimethyl-5-(trifluoromethyl)tetrahydrofuran-2-carboxamide] was tested. Which IC50 did it give?
Answer: 2.89 nM

Question: Which IC50 does the source give for COc1c([C@H]2[C@H](C(=O)Nc3ccnc(C(=O)NOCC4CC4)c3)O[C@@](C)(C(F)(F)F)[C@H]2C)ccc(F)c1F [Example 18, N-(Cyclopropylmethoxy)-4-((2R,3S,4S,5R)-3-(3,4-difluoro-2-methoxyphenyl)-4,5-dimethyl-5-(trifluoromethyl)tetrahydrofuran-2-carboxamido)picolinamide] here?
Answer: 1.89 nM

Question: COc1c([C@H]2[C@H](C(=O)Nc3ccnc(C(N)CO)c3)O[C@@](C)(C(F)(F)F)[C@H]2C)ccc(F)c1F (stereo partly drawn) [Example 6, (2R,3S,4S,5R)—N-(2-(1-Amino-2-hydroxyethyl)pyridin-4-yl)-3-(3,4-difluoro-2-methoxyphenyl)-4,5-dimethyl-5-(trifluoromethyl)tetrahydrofuran-2-carboxamide] was tested. Which IC50 did it give?
Answer: 1.87 nM

Question: For CCNNC(=O)c1cc(NC(=O)[C@@H]2O[C@@](C)(C(F)(F)F)[C@@H](C)[C@H]2c2ccc(F)c(F)c2OC)ccn1 [Example 22, (2R,3S,4S,5R)-3-(3,4-Difluoro-2-methoxyphenyl)-N-(2-(2-ethylhydrazine-1-carbonyl)pyridin-4-yl)-4,5-dimethyl-5-(trifluoromethyl)tetrahydrofuran-2-carboxamide], which IC50 is on record?
Answer: 0.68 nM
